molecular target: T1, recombinant human mPGES-1 (Homo sapiens, UniProt O14684); assay: Assay B: mPGES-1 enzyme assay (modified); type: biochemical; details: biological assay B (modified); PGH2 final conc. 2 μM; read-out: mPGES-1 inhibitory effect IC50
T1 construct: made in house; host or cells: Rosetta E. coli (membrane/microsome fraction)
T1 sequence (O14684 1-152): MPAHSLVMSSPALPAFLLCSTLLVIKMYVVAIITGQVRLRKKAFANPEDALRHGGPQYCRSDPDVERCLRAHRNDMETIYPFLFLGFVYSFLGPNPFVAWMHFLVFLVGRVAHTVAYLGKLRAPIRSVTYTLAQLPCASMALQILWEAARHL
Procedure: Assay B: mPGES-1 Enzyme Assay (Modified)
Microsomes from Rosetta E. coli bacteria expressing recombinant human mPGES-1 can be derived as described below:
Inoculate 5 ml LB with Ampicilin (50 μg/ml) and Chloramphenicol (34 μg/ml) with bacteria from freeze culture. Incubate 8 h at 37° C. with 200 rpm. Thereafter, inoculate 500-1000 ml LB containing Ampicilin and Chloramphenicol with the 5 ml on culture and grow to OD640 of 0.8-1.0. Chill the culture to +4° C. before induction. Induce the culture with IPTG at a final concentration of 400 μM. Express the protein at room temp 18-23° C. with 200 rpm shaking overnight.
The following steps can be performed on the following day: • 1. Spin down the cells in 250 ml centrifuge flasks for 15 min at 7000 rpm (Beckmann Coulte Avanti J-E centrifuge) • 2. Dissolve the pellet from 250 ml culture in 12.5 ml homogenization buffer • 3. (15 mM Tris-HCL pH8, 1 mM EDTA pH8, […], 2.5 mM GSH, 1 Tablet Protease inhibitor per 50 ml buffer) • 4. Disintegrate the cells by sonication, 5×10 seconds at 48% amplitude of a 750 W sonifier • 5. Add 2.5 ml MgCl2 (100 mM) and DNase 12.5 μl (0.8 mg/ml) and incubate on ice for 30 min • 6. Spin down the bacteria debris and save the supernatant, 7000 rpm for 15 min • 7. Isolate the protein containing membranes in the supernatant by ultracentrifugation 120000×g for 2 hour at 4° C. (Sorvall T880 rotor). • 8. Discard the supernatant and dissolve the pellet in 20 mM Potassium phosphate buffer pH7.4 (KH2PO4 and K2HPO4) buffer by sonication (5×10 s, 30% of a 50 W sonifier) and aliquot the enzyme and store aliquots at −80° C.
Before each experiment is performed an aliquot of the enzyme is thawed and it can then be dissolved in 0.1 M Potassium phosphate buffer pH7.4 (KH2PO4 and K2HPO4) buffer containing 2.5 mM GSH.
The aim of this assay is to determine the affinity of a test compound for the mPGES-1 enzyme.
47 μl of recombinant human mPGES-1 (˜0.5 μg protein/well) containing microsomal suspension in a buffer containing GSH, (2.5 mmol/L L-Glutathione reduced, dissolved in 0.1 mol/L Phosphat Buffer pH 7.4) is dispensed in a 384-well plate and thereafter 1 μl of the test compound(s) is/are added and incubated for 25 minutes at room temperature. The enzyme reaction is started by the addition of 2 ul PGH2 (final conc. 2 μM) dissolved in water-free Diglyme. After 60 seconds the reaction is terminated by addition of a stop solution containing FeCl2 (10 μL 0.074 mol/l FeCl2). The samples are diluted between 1:25 in PBS (Phosphate Buffered Saline). 10 μl of the diluted samples are transferred to 384-well low volume plate. In order to quantify the amount of PGE2 that has been formed, a homogenous time resolved fluorescent (HTRF) detecting of PGE2 has been performed using a commercially available kit from Cisbio according to the manufactures recommendation. This HTRF-based assay has been described in detail (see: Goedken et al., J Biomol Screen, 2008, 13(7), 619-625). Briefly, the diluted samples are mixed with 5 μl PGE2-d2 conjungate and 5 μl anti-PGE2 cryptate conjungate. After an incubation period of the plates overnight, the fluorescence is measured by the use of an appropriate microplate reader.
The fluorescence of Europium cryptate (maxex=307 nm, maxem=620 nm) and d2-PGE2 (maxex=620 nm, maxem=665 nm) are measured.
The extent of the specific HTRF is measured as a ratio of the emission intensity at 665 nm vs. that at 620 nm at an excitation puls of 320 nm. The quantification plate contains also wells with different concentrations of PGE2 as calibration curve for the calculation of the PGE2 concentrations from the HTRF ratio values.
From all mPGES enzyme assay the background is subtracted and the IC50 is calculated over a nonlinear regression with conventional software.

Point of comparison: `CC(C)(C)C(=O)NCc1ccc(Cl)c(Nc2nc3cc(Cl)c(N4CCC(C(F)(F)F)CC4)cc3[nH]2)c1Cl` [Example 40, N-{2,4-Dichloro-3-[5-chloro-6-(4-trifluoromethyl-piperidin-1-yl)-1H-benzimidazol-2-ylamino]-benzyl}-2,2-dimethyl-propionamide], IC50 5.7 nM. Against it:
- Cn1c(Nc2cc(CNC(=O)C(C)(C)C)ccc2Cl)nc2cc(N3CCC(C(F)(F)F)CC3)ccc21 [Example 12] — 31-fold higher, 174 nM
- Cn1c(Nc2c(Cl)ccc(CNC(=O)C(C)(C)C)c2F)nc2cc(Cl)c(N3CCC(F)CC3)cc21 [Example 33, N-{2-Fluoro-4-chloro-3-[5-chloro-1-methyl-6-(4-fluoro-piperidin-1-yl)-1H-benzimidazol-2-ylamino]-benzyl}-2,2-dimethyl-propionamide] — 1.9-fold lower, 3 nM
- CN(CC(C)(C)O)c1cc2c(cc1Cl)nc(Nc1c(Cl)ccc(CNC(=O)C(C)(C)C)c1F)n2C [Example 37] — within 1.5-fold, 7.8 nM
- CC(C)(C)C(=O)NCc1ccc(Cl)c(Nc2nc3cc(Cl)c(N4CCC(F)CC4)cc3[nH]2)c1F [Example 48] — 1.6-fold higher, 9 nM
- Cn1c(Nc2c(Cl)ccc(CNC(=O)OC(C)(C)C)c2Cl)nc2cc(Cl)c(N3CCCC(C(F)(F)F)C3)cc21 (stereo not drawn) [Example 51] — 4-fold higher, 23 nM
- CC(C)(C)C(=O)NCc1ccc(Cl)c(Nc2nc3cc(Cl)c(N4CCCC(C(F)(F)F)C4)cc3[nH]2)c1Cl (stereo not drawn) [Example 52] — 2.6-fold lower, 2.2 nM
- Cn1c(Nc2c(Cl)ccc(CNC(=O)C(C)(C)C)c2Cl)nc2cc(Cl)c(N3CCCC(C(F)(F)F)C3)cc21 (stereo not drawn) [Example 53] — 1.6-fold lower, 3.5 nM
- Cn1c(Nc2c(Cl)ccc(CNC(=O)C(C)(C)C)c2Cl)nc2cc(Cl)c(N3CCC(C(F)(F)F)C3)cc21 (stereo not drawn) [Example 59] — 2.9-fold lower, 2 nM
- CC(C)(C)C(=O)NCc1ccc(Cl)c(Nc2nc3cc(C(F)(F)F)c(N4CCC(C(F)(F)F)CC4)cc3[nH]2)c1Cl [Example 61, N-{2,4-Dichloro-3-[5-trifluoromethyl-6-(4-trifluoromethyl-piperidin-1-yl)-1H-benzimidazol-2-ylamino]benzyl}-2,2-dimethyl-propionamide] — within 1.5-fold, 5 nM
- Cn1c(Nc2c(F)ccc(CNC(=O)C(C)(C)C)c2F)nc2cc(Cl)c(N3CCC(C(F)(F)F)CC3)cc21 [Example 70, N-{2,4-Difluoro-3-[5-chloro-1-methyl-6-(4-trifluoromethyl-piperidin-1-yl)-1H-benzimidazol-2-ylamino]-benzyl}-2,2-dimethyl-propionamide] — within 1.5-fold, 6.5 nM
- Cn1c(Nc2cc(CNC(=O)C3(C(F)(F)F)CC3)ccc2Cl)nc2cc(Cl)c(N3CCN(CC(F)(F)F)CC3)cc21 [Example 92] — 6.8-fold higher, 39 nM
- Cn1c(Nc2cc(CNC(=O)C(C)(C)C(F)(F)F)ccc2Cl)nc2cc(Cl)c(N3CCC(c4ccccc4)CC3)cc21 [Example 97] — 1.8-fold lower, 3.1 nM
- Cn1c(Nc2cc(CNC(=O)C(C)(C)C(F)(F)F)ccc2Cl)nc2cc(Cl)c(N3CCN(c4ccc(C(F)(F)F)cc4)CC3)cc21 [Example 98] — within 1.5-fold, 6.5 nM
- CC(C)(C)C(=O)NCc1ccc(Cl)c(Nc2nc3cc(C#N)c(N4CCC(C(F)(F)F)CC4)cc3[nH]2)c1Cl [Example 131] — within 1.5-fold, 5 nM
